{"source": "the supplement of paper PMC10307832", "test_in_all_cases": "relative viability (nuclei count vs DMSO), 5 days (fraction); higher = more cells survive", "key": {"Wnt-C59 + Linsitinib": {"compound": "CC1=NC=CC(=C1)C2=CC=C(C=C2)CC(=O)NC3=CC=C(C=C3)C4=CN=CC=C4 [Wnt-C59] + C[C@]1(O)C[C@@H](c2nc(-c3ccc4ccc(-c5ccccc5)nc4c3)c3c(N)nccn32)C1 [Linsitinib] (partner 1 µM)", "procedure,_shortened": "(§1)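 Values are medians from duplicate plates. Each reflects relative viability, defined as the nuclei count of treated wells over that of vehicle wells. Lung cancer cell lines in 1536-well plates were pin-tool dosed one day after seeding with one drug alone or with a fixed anchor-drug dose plus five library-drug doses (not always all listed) in √10 steps, then fixed, stained and imaged at 4× after 5 days.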"}, "Lapatinib + Vorinostat": {"compound": "CS(=O)(=O)CCNCc1ccc(-c2ccc3ncnc(Nc4ccc(OCc5cccc(F)c5)c(Cl)c4)c3c2)o1 [Lapatinib] + O=C(CCCCCCC(=O)Nc1ccccc1)NO [Vorinostat] (partner 1 µM)", "procedure,_shortened": "as §1"}, "Lapatinib + Pictilisib": {"compound": "CS(=O)(=O)CCNCc1ccc(-c2ccc3ncnc(Nc4ccc(OCc5cccc(F)c5)c(Cl)c4)c3c2)o1 [Lapatinib] + CS(=O)(=O)N1CCN(Cc2cc3nc(-c4cccc5[nH]ncc45)nc(N4CCOCC4)c3s2)CC1 [Pictilisib] (partner 1 µM)", "procedure,_shortened": "as §1"}, "Lapatinib + Olaparib": {"compound": "CS(=O)(=O)CCNCc1ccc(-c2ccc3ncnc(Nc4ccc(OCc5cccc(F)c5)c(Cl)c4)c3c2)o1 [Lapatinib] + O=C(c1cc(Cc2n[nH]c(=O)c3ccccc23)ccc1F)N1CCN(C(=O)C2CC2)CC1 [Olaparib] (partner 8 µM)", "procedure,_shortened": "as §1"}}, "data": [{"cell line": "UMC-11", "values": [{"measurement": "relative viability", "setting": "Wnt-C59 + Linsitinib; first compound 0.001 µM", "value": 0.96}, {"measurement": "relative viability", "setting": "Wnt-C59 + Linsitinib; first compound 0.01 µM", "value": 0.977}, {"measurement": "relative viability", "setting": "Wnt-C59 + Linsitinib; first compound 0.03162 µM", "value": 1.04}, {"measurement": "relative viability", "setting": "Wnt-C59 + Linsitinib; first compound 0.1 µM", "value": 0.991}, {"measurement": "relative viability", "setting": "Lapatinib + Vorinostat; first compound 0.02 µM", "value": 0.42}, {"measurement": "relative viability", "setting": "Lapatinib + Vorinostat; first compound 0.06325 µM", "value": 0.384}, {"measurement": "relative viability", "setting": "Lapatinib + Vorinostat; first compound 0.2 µM", "value": 0.39}, {"measurement": "relative viability", "setting": "Lapatinib + Vorinostat; first compound 0.6325 µM", "value": 0.367}, {"measurement": "relative viability", "setting": "Lapatinib + Vorinostat; first compound 2 µM", "value": 0.321}, {"measurement": "relative viability", "setting": "Lapatinib + Pictilisib; first compound 0.02 µM", "value": 0.251}, {"measurement": "relative viability", "setting": "Lapatinib + Pictilisib; first compound 0.06325 µM", "value": 0.731}, {"measurement": "relative viability", "setting": "Lapatinib + Pictilisib; first compound 0.2 µM", "value": 0.827}, {"measurement": "relative viability", "setting": "Lapatinib + Pictilisib; first compound 0.6325 µM", "value": 0.839}, {"measurement": "relative viability", "setting": "Lapatinib + Pictilisib; first compound 2 µM", "value": 0.759}, {"measurement": "relative viability", "setting": "Lapatinib + Olaparib; first compound 0.02 µM", "value": 0.299}, {"measurement": "relative viability", "setting": "Lapatinib + Olaparib; first compound 0.06325 µM", "value": 0.342}, {"measurement": "relative viability", "setting": "Lapatinib + Olaparib; first compound 0.2 µM", "value": 0.347}, {"measurement": "relative viability", "setting": "Lapatinib + Olaparib; first compound 0.6325 µM", "value": 0.376}, {"measurement": "relative viability", "setting": "Lapatinib + Olaparib; first compound 2 µM", "value": 0.327}]}]}
